Experimental findings from US20140220477A1, “Polymers, substrates, methods for making such, and devices comprising the same” (Avertica, Inc., priority 2013, published 2014) are described below.

The target of the assay is T1, mushroom tyrosinase (polyphenol oxidase) Sigma T3824 (Agaricus bisporus, UniProt C7FF04).
T1 construct: purchased Sigma T3824
Description: Testing of polymer production in enzymatic tyrosinase (polyphenol oxidase) reaction. The class given is biochemical. Also noted: key: +++: Reacted within about 1 hour; ++: reacted within about 3 hours; +: reacted within about 24 hours; +/−: inconclusive results; −: no reaction. As to the method: All reactions were carried out in approximately 50 mM potassium phosphate buffer, pH 6.5 with approximately 5 mM substrate and mushroom tyrosinase (polyphenol oxidase) Sigma T3824 in an amount of 100 to 10,000 units. Reaction volumes varied from 200 μl to 2 ml. In cases where substrates were not completely solubilized, then a saturated solution was used as the limit of solubility. In some cases, a solution of DMSO was used to increase solubility of the substrates. The enzyme was tested and shown to retain activity up to 50% DMSO. The reactions were observed over a 24 hour period for the production of polymers, and the presence and color of polymer and solution was recorded.
The production of polymers in each reaction was visible as a precipitate in the well of a 96 well plate or in the reaction mixture on a glass slide.

Where [1] appears, read: approx. 50 mM potassium phosphate buffer pH 6.5, approx. 5 mM substrate, 100 to 10,000 units enzyme, observed over 24 hours.
[2] abbreviates: as above, marked substrate(s) dissolved in 20% DMSO.

Where a name gives a salt, the structure may show the parent alone.

T1 sequence (C7FF04 1-392 limits assumed): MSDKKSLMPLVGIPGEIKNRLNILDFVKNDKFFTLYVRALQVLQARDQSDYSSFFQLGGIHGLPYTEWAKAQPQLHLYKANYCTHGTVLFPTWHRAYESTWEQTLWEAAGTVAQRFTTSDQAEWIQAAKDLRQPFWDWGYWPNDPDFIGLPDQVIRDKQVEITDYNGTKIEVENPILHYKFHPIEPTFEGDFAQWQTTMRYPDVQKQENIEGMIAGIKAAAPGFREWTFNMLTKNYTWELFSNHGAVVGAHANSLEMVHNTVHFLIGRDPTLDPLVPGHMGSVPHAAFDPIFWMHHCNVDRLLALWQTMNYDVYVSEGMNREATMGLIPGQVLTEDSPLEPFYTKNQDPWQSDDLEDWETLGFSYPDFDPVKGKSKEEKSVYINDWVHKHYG

For `Oc1ccc2[nH]ccc2c1` [5-hydroxyindole], the “Result (polymer production in tyrosinase reaction)” value (shortened to “Result”) under setting [1] was “+++ (Reacted within about 1 hour)”.

`CN[C@@H](Cc1ccc(O)cc1)C(=O)O` [N-methyl tyrosine]: under setting [1], the “Result” value was “++ (reacted within about 3 hours)”.

On to `Oc1ccc2c(c1)[nH]c1ccccc12` [2 Hydroxy carbazole], for which the “Result” value under setting [2] is “−”.

As to `Cl.NCCc1ccc(O)cc1` [Tyramine HCl], under setting [1], the “Result” value is reported as “+++ (Reacted within about 1 hour)”.

As to `c1ccc2[nH]ccc2c1` [Indole], the “Result” value under setting [1] is recorded as “−”.

As to `Cl.NCCc1ccccc1` [Beta phenylethylamine HCL], under setting [1], the “Result” value is “+/−”.

Consider `Oc1ccc2cc(O)ccc2c1` [2,6 dihydroxnaphthalene], for which the “Result” value under setting [1] is on record as “+ (reacted within about 24 hours)”.

As for `Oc1ccc2cc[nH]c2c1` [6 Hydroxyindole], the “Result” value under setting [1] is reported as “++ (reacted within about 3 hours)”.

As for `CC1=NCCc2c1[nH]c1cc(O)ccc21` [Harmalol HCl dehydrate], the “Result” value under setting [2] is recorded as “−”.

Take `N[C@@H](Cc1ccc(O)cc1)C(=O)O` [Tyrosine]: the “Result” value under setting [1] is given as “++ (reacted within about 3 hours)”.

For `Oc1ccc(-c2cc(-c3ccc(O)cc3)cc(-c3ccc(O)cc3)c2)cc1` [1,3,5 Tris(4hydroxyphenyl)benzene], the “Result” value under setting [2] is recorded as “+ (reacted within about 24 hours)”.

As for `NCCc1ccc(O)cc1` [Tyramine], under setting [1], the “Result” value is on record as “+++ (Reacted within about 1 hour)”.
